Numbers after ± are expanded uncertainties.
Key:
[1] = Crystal; DTA
[2] = Molar enthalpy of transition or fusion; conditions: Crystal; DSC

SMILES	Normal melting temperature [1] [°C]	Molar enthalpy of transition or fusion [2] [kcal/mol]
C1CCCCC1 [cyclohexane]	7 ± 1.1	
CCCCCCCCCCCC [dodecane]	-9.4 ± 1.1	
CCCCCCCCCCCCCCCCCCCC [eicosane]	35.0 ± 1.1	
[Ga] [gallium]	30.2 ± 1.1	1.39 ± 0.12
CCCCCCCCCCCCCCCC [hexadecane]	18 ± 1.1	
CCCCCCCCCCCCCC [tetradecane]	5.8 ± 1.1	
O [water]	0.4 ± 1.1	
